B1: SV40 large T antigen: transiently over-expressed inhibitor of both p53 and Rb pathways (protein, UniProt P03070 1-708, looked up)
Large T antigen: MDKVLNREESLQLMDLLGLERSAWGNIPLMRKAYLKKCKEFHPDKGGDEEKMKKMNTLYKKMEDGVKYAHQPDFGGFWDATEIPTYGTDEWEQWWNAFNEENLFCSEEMPSSDDEATADSQHSTPPKKKRKVEDPKDFPSELLSFLSHAVFSNRTLACFAIYTTKEKAALLYKKIMEKYSVTFISRHNSYNHNILFFLTPHRHRVSAINNYAQKLCTFSFLICKGVNKEYLMYSALTRDPFSVIEESLPGGLKEHDFNPEEAEETKQVSWKLVTEYAMETKCDDVLLLLGMYLEFQYSFEMCLKCIKKEQPSHYKYHEKHYANAAIFADSKNQKTICQQAVDTVLAKKRVDSLQLTREQMLTNRFNDLLDRMDIMFGSTGSADIEEWMAGVAWLHCLLPKMDSVVYDFLKCMVYNIPKKRYWLFKGPIDSGKTTLAAALLELCGGKALNVNLPLDRLNFELGVAIDQFLVVFEDVKGTGGESRDLPSGQGINNLDNLRDYLDGSVKVNLEKKHLNKRTQIFPPGIVTMNEYSVPKTLQARFVKQIDFRPKDYLKHCLERSEFLLEKRIIQSGIALLLMLIWYRPVAEFAQSIQSRIVEWKERLDKEFSLSVYQKMKFNVAMGIGVLDWLRNSDDDDEDSQENADKNEDGGEKNMEDSGHETGIDSQSQGSFQAPQSSQSVHDHNQPYHICRGFTCFKKPPTPPPEPET

Tests used:
PERV pol gene = assay: PERV pol targeting (editing) efficiency in FFF3 cells, deep sequencing of PERV pol loci; type: cell-based, porcine; details: for average targeting efficiency (PERV editing efficiency) of FFF3 populations: applied during genetic modification with CRISPR-Cas9
Description: Similar to the procedure previously described by Yang et al, 2015, Science, 80:350, a DNA fragment encoding U6-gRNA1-U6-gRNA2 (Genewiz) was synthesized and incorporated into a previously constructed PiggyBac-cas9 plasmid. To establish the FFF3 cell lines with PiggyBac-Cas9/2gRNAs integration, 5×10^5 FFF3 cells were transfected with 16 μg PiggyBac-Cas9/2gRNAs plasmid and 4 μg Super PiggyBac Transposase plasmid (System Biosciences) using the Neon transfection system according to the instructions in the commercial kits (Thermo Fisher Scientific). To select the cells carrying the integrated construct, 2 μg/mL puromycin was applied to the transfected cells. Based on the negative control, in which puromycin was applied to wild type FFF3 cells, it was determined that the puromycin selection was completed in 4 days. The FFF3-PiggyBac cell line was maintained with 2 μg/mL puromycin hereafter and a 2 μg/ml doxycycline was applied to induce Cas9 expression of the doxycycline-inducible FFF3-PiggyBac cell line.
To avoid the Cas9-consistent expression in the FFF3 cell line, PiggyBac-Cas9/2gRNAs excision from the FFF3 genome was conducted by transfecting 5×10^5 cells with 3 μg PiggyBac Excision-Only Transposase vector using Lipofectamine 2000 reagent. The PiggyBac-Cas9/2gRNAs-excised FFF3 cells were then single-cell sorted into 96-well plates for clone growth and genotyping.
First, puromycin selection followed by PiggyBac excision was conducted on the FFF3, PiggyBac-Cas9/2gRNA cell line. Then the cells were single-cell sorted into both 96-well PCR plates for direct genotyping and 96-well cell culture plates for colony growth.
To genotype single FF cells without clonal expansion, the PERV loci from sorted single cells were directly amplified according to a previously reported single-cell genotyping protocol. Briefly, the single cells were sorted into 96-well PCR plates with each well carrying a 5 μl lysis mixture, which contained 0.51 μl 10×KAPA express extract buffer (KAPA Biosystems), 0.1 μl of 1 U/μl KAPA Express Extract Enzyme and 4.6 μl water. The lysis reaction was incubated at 75° C. for 15 min and the reaction was subsequently inactivated at 95° C. for 5 min. All reactions were then added to 20 μl PCR reactions containing 1×KAPA 2G fast (KAPA Biosystems), 0.2 μM PERV Illumina primers (Methods Table 2). Reactions were incubated at 95° C. for 3 min followed by 25 cycles of 95° C., 20 s; 59° C., 20 s and 72° C., 10 s. To add the Illumina sequence adaptors, 3 μl of reaction products were then added to 20 μl of PCR mix containing 1×KAPA 2G fast(KAPA Biosystems) and 0.3 μM primers carrying Illumina sequence adaptors. Reactions were incubated at 95° C. for 3 min followed by 10 cycles of 95° C., 20 s; 59° C., 20 s and 72° C., 10 s. PCR products were checked on EX 2% gels (Invitrogen), followed by the recovery of 300-400 bp products from the gel. These products were then mixed at roughly the same amount, purified (QIAquick Gel Extraction Kit), and sequenced with MiSeq Personal Sequencer (Illumina). Deep sequencing data was analyzed, and the PERV editing efficiency using CRISPR-GA was determined (Denner et al., 2016, Viruses, 8:215).
As previously described in Yang et al. (6), a custom pipeline was built to estimate the efficiency of PERV inactivation. Briefly, the pol gene was amplified and sequenced via Illumina Next Generation Sequencing using PE250 or PE300. First, the two overlapping reads using PEAR (15) were combined and mapped to the reference region using BLAT. After mapping, the reads were grouped into sets containing specific combinations of haplotypes, and indel types. Read sets with representation lower than 0.5% of the total number of mapped reads were discarded. Finally, the mapping output was parsed to call the different insertions and deletions, as described in Güell et al (16).

[1] = clones grown from sorted single cells

| Molecule | average targeting efficiency (PERV editing efficiency) of FFF3 populations (PERV pol gene) | cytotoxicity (FFF3 cells) | PERV targeting efficiency among treatments with different dosages (PERV pol gene; FFF3 cells, seven days of treatment) | increase of the ratio of >80% PERV-ko clones compared with the untreated group (PERV pol gene; [1]) | increase of the ratio of >90% PERV-ko clones compared with the untreated group (PERV pol gene; [1]) |
| --- | --- | --- | --- | --- | --- |
| basic fibroblast growth factor [bFGF] | did not increased |  |  |  |  |
| Bcl-2: an apoptosis inhibitor, over-expressed | did not increase | Dose-dependent cytotoxicity | No significant difference |  |  |
| Cc1ccc(C(=O)Cn2c3c(sc2=N)CCCC3)cc1 [PFTα, pifithrin alpha, reference compound] | did not increased |  |  |  |  |
| B1 | increased |  |  | 3.75 folds | 5.06 folds |

Reference: patent US12058986B2, “Method for generating a genetically modified pig with inactivated porcine endogenous retrovirus (PERV) elements” (eGenesis, Inc., priority 2017, dated 2024)
